Experiments:
[1] = xn = mol fraction of the nth substance listed; details: Liquid; for speed of sound: 100 kPa, Frequency=3 MHz, Sing-around technique in a fixed-path interferometer; for mass density: 101.3 kPa, Vibrating tube method
[2] = refractive index (Na D-line) (dimensionless); xn = mol fraction of the nth substance listed; details: 100 kPa, Liquid, Standard Abbe refractometry

CCCOCCO [2-propoxyethanol] + CCOS(=O)(=O)[O-].CCn1cc[n+](C)c1
Details	mass density, [1] [kg/m3]	refractive index, [2]	speed of sound, [1] [m/s]
298.15 K, x2 = 0	908.31	1.41255	1299.9
298.15 K, x2 = 0.0496	936.15	1.41807	1322.2
298.15 K, x2 = 0.0901	957.3	1.42234	1339.6
298.15 K, x2 = 0.1345	979.08	1.42679	1358
298.15 K, x2 = 0.1738	997.17	1.43052	1374
298.15 K, x2 = 0.2568	1032.34	1.43781	1407.7
298.15 K, x2 = 0.3477	1066.65	1.44491	1444.5
298.15 K, x2 = 0.4406	1097.96	1.45131	1482.1
298.15 K, x2 = 0.5477	1130.29	1.45778	1525.4
298.15 K, x2 = 0.6478	1157.57	1.46309	1565.2
298.15 K, x2 = 0.7729	1188.39	1.46902	1612.3
298.15 K, x2 = 0.8263	1200.6	1.4714	1630.9
298.15 K, x2 = 0.8757	1211.4	1.47357	1647
298.15 K, x2 = 0.9346	1223.63	1.47615	1664.4
308.15 K, x2 = 0	899.5	1.40814	1265
308.15 K, x2 = 0.0496	927.63	1.41391	1288.6
308.15 K, x2 = 0.0901	948.98	1.41835	1306.8
308.15 K, x2 = 0.1345	970.94	1.42296	1326.1
308.15 K, x2 = 0.1738	989.17	1.42682	1342.8
308.15 K, x2 = 0.2568	1024.6	1.43433	1377.8
308.15 K, x2 = 0.3477	1059.1	1.44162	1415.6
308.15 K, x2 = 0.4406	1090.57	1.44817	1454.2
308.15 K, x2 = 0.5477	1123.06	1.45477	1498.4
308.15 K, x2 = 0.6478	1150.45	1.4602	1539
308.15 K, x2 = 0.7729	1181.41	1.46625	1587
308.15 K, x2 = 0.8263	1193.67	1.46868	1606
308.15 K, x2 = 0.8757	1204.51	1.47089	1622.3
308.15 K, x2 = 0.9346	1216.76	1.4735	1639.9
318.15 K, x2 = 0	890.56	1.40355	1230.1
318.15 K, x2 = 0.0496	919	1.40953	1254.9
318.15 K, x2 = 0.0901	940.58	1.41413	1274
318.15 K, x2 = 0.1345	962.75	1.41891	1294.2
318.15 K, x2 = 0.1738	981.14	1.4229	1311.6
318.15 K, x2 = 0.2568	1016.84	1.43065	1347.8
318.15 K, x2 = 0.3477	1051.57	1.43817	1386.9
318.15 K, x2 = 0.4406	1083.21	1.44492	1426.5
318.15 K, x2 = 0.5477	1115.85	1.45172	1471.8
318.15 K, x2 = 0.6478	1143.37	1.45729	1513.2
318.15 K, x2 = 0.7729	1174.46	1.46348	1562
318.15 K, x2 = 0.8263	1186.78	1.46595	1581.3
318.15 K, x2 = 0.8757	1197.67	1.46818	1597.9
318.15 K, x2 = 0.9346	1209.98	1.47081	1615.7
328.15 K, x2 = 0	881.49	1.39908	1195.8
328.15 K, x2 = 0.0496	910.28	1.4053	1221.5
328.15 K, x2 = 0.0901	932.1	1.41007	1241.4
328.15 K, x2 = 0.1345	954.51	1.41501	1262.4
328.15 K, x2 = 0.1738	973.08	1.41912	1280.5
328.15 K, x2 = 0.2568	1009.08	1.42711	1318.1
328.15 K, x2 = 0.3477	1044.05	1.43483	1358.5
328.15 K, x2 = 0.4406	1075.88	1.44175	1399.3
328.15 K, x2 = 0.5477	1108.69	1.4487	1445.6
328.15 K, x2 = 0.6478	1136.34	1.45439	1487.8
328.15 K, x2 = 0.7729	1167.58	1.46071	1537.5
328.15 K, x2 = 0.8263	1179.94	1.46322	1557
328.15 K, x2 = 0.8757	1190.88	1.46549	1573.9
328.15 K, x2 = 0.9346	1203.26	1.46815	1591.9
